In US11266640B2, “Polycyclic compound acting as IDO inhibitor and/or IDO-HDAC dual inhibitor” (Hangzhou Innogate Pharma Co., Ltd., priority 2017, dated 2022):

Biological target: T1, IDO (Homo sapiens, UniProt P14902)
T1 construct: endogenous in cells; host or cells: HeLa cells treated with IFNγ
Test: Hela cell-based IDO inhibitory activity test (IFNγ added)
Details: Hela cells with IFNγ, 48 hours incubation, OD 480 nm
Method: 2. Hela Cell-Based IDO Inhibitory Activity Test Method
The first step: cell plating. Prepare complete medium and mix well. Cell lines that are in good growth state are selected. Remove the cell culture flask from the incubator and check the cell name, media type and cell generation number on the bottle. The medium was discarded, digested with trypsin, and after digestion, the cells were neutralized with serum-containing medium, and the cells were blown to cause the cells to fall off. Pipette the cell suspension into a centrifuge tube and centrifuge at a speed of 800-1000 for 3-5 minutes. Aspirate the cell supernatant from the centrifuge tube. Add an appropriate volume of medium to the tube and gently blister to resuspend the cells. Count using a Vi-Cell XR cytometer. Adjust the cell suspension to the appropriate concentration. The cell suspension was added to a white-well 96-well plate at 80 μl/well according to the schematic below. The second step: preparation and addition of the compound. Compounds were formulated in DMSO at 600 μM and the compounds were diluted in DMSO according to a multiple of the following table to give 6 concentration gradients of the compound. The 200× compound prepared in DMSO was formulated into a 10× dilution solution in proportion to the corresponding cell culture medium. After 24 hours of cell seeding, 10 μL of 10× corresponding compound dilution and 10 μL of 10×IFNγ were added to each well. Incubate for 48 hours in a 37° C. incubator. The third step: detection and analysis. Cell morphology was observed under an inverted microscope. 80 μL of the supernatant was added to a 3894 plate, 10 μL of 6.1 N trichloroacetic acid was added to each well, shaken for 2 minutes, and placed in a 50-degree incubator for 30 minutes. Centrifuge, 2500 rpm for 10 minutes.
Take 70 μL of the supernatant and transfer to a 3635 UV plate, add 70 μL of the reaction solution, and shake for 2 minutes to make the reaction uniform. Use EnSpire (PE) to detect data with an OD of 480 nm. The cell culture plate 3903 was allowed to stand at room temperature for 30 minutes. 100 μL/well of the cell activity detecting reagent was added to the culture plate. Mix on a shaker for 2 minutes to induce cell lysis. The 96-well plate was allowed to stand at room temperature for 10 minutes to stabilize the luminescence signal. Paste the white base film on the bottom of the plate and tested with Flexstation3 plate (the relevant setting is: Illumination, integration time 500 ms). Record the experimental results obtained from the analysis.
The IC50 value is expressed in the following manner: […]

T1 sequence (P14902 whole entry): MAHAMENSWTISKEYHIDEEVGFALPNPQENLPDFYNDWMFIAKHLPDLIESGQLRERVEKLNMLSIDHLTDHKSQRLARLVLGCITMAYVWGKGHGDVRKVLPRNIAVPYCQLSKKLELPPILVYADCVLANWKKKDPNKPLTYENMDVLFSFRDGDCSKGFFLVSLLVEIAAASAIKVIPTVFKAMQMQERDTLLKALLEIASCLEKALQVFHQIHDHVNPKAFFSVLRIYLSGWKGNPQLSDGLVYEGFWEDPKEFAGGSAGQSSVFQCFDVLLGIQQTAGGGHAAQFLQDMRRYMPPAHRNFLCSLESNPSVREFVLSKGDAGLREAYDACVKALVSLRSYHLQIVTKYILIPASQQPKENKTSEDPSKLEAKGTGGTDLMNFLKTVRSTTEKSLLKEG

| Compound | IC50 [nM] |
| --- | --- |
| O=C(C[C@@]1(F)C[C@H]2C[C@@H](c3ccnc4ccc(F)cc34)C[C@H]2C1)Nc1ccc(Cl)cc1 [Compound 59] | 5 to 25 |
| CC(C(=O)Nc1ccc(Cl)nc1)[C@H]1C[C@]2(C)C[C@H](c3ccnc4ccc(F)cc34)C[C@]2(C)C1 (some centres unmarked) [Compound 43] | 25 to 100 |
| O=C(Nc1ccc(Cl)cc1)N1C[C@H]2C[C@@H](c3ccnc4ccc(F)cc34)C[C@H]2C1 [Compound 48] | > 100 |
| O=C(C[C@H]1C[C@H]2CC(c3ccnc4ccc(F)cc34)C[C@H]2C1)Nc1ccc2[nH]ncc2c1 (some centres unmarked) [Compound 14] | > 100 |
| O=C(Nc1ccc(Cl)cc1)C1CC12CCC(c1ccnc3ccc(F)cc13)CC2 (centres unmarked) [Compound 56] | 5 to 25 |
| C#Cc1ccc(NC(=O)C[C@H]2C[C@@H]3CC(c4ccnc5ccc(F)cc45)=C[C@@H]3C2)nc1 [Compound 65] | 5 to 25 |
| O=C(Nc1ccc(Cl)cn1)C(F)(F)[C@H]1C[C@H]2C[C@@H](c3ccnc4ccc(F)cc34)C[C@H]2C1 [Compound 104] | 25 to 100 |
| N#Cc1ccc(NC(=O)C[C@@H]2C[C@@H]3C[C@H](c4ccnc5ccc(F)cc45)C[C@@H]3C2)cn1 [Compound 102] | ≤ 5 |
| N#Cc1ccc(NC(=O)C[C@@H]2C[C@H]3CC(c4ccnc5ccc(F)cc45)C[C@H]3C2)cc1 (some centres unmarked) [Compound 23] | ≤ 5 |
| C#Cc1ccc(NC(=O)C[C@@H]2C[C@H]3CC(c4ccnc5ccc(F)cc45)C[C@H]3C2)nc1 (some centres unmarked) [Compound 25] | ≤ 5 |
| CC(C(=O)NC1CCOCC1)[C@H]1C[C@H]2C[C@@H](c3ccnc4ccc(F)cc34)C[C@H]2C1 (some centres unmarked) [Compound 3] | > 100 |
| C#Cc1ccc(NC(=O)C(C)[C@H]2C[C@H]3C[C@@H](c4ccnc5ccc(F)cc45)C[C@H]3C2)cn1 (some centres unmarked) [Compound 37] | ≤ 5 |
| O=C(C[C@@H]1C[C@@H]2CC(c3ccncc3F)=C[C@@H]2C1)Nc1ccc(Cl)cc1 [Compound 53] | > 100 |
| CC(C(=O)Nc1ccc(F)c(Br)c1)[C@H]1C[C@H]2C[C@@H](c3ccnc4ccc(F)cc34)C[C@H]2C1 (some centres unmarked) [Compound 33] | 25 to 100 |
| O=C(C[C@H]1C[C@H]2CC(c3ccnc4ccc(F)cc34)C[C@H]2C1)Nc1ccc(Cl)nc1 (some centres unmarked) [Compound 18] | ≤ 5 |
| C[C@H](C(=O)Nc1ccc(Cl)cn1)[C@H]1C[C@H]2CC(c3ccnc4ccc(F)cc34)C[C@H]2C1 (single isomer, unassigned) [Compound 26B] | ≤ 5 |
| N#Cc1ccc(NC(=O)C[C@H]2C[C@@H]3C[C@H](c4ccnc5ccc(F)cc45)C[C@@H]3C2)nc1 [Compound 70] | ≤ 5 |

| Compound | IC50 [nM] |
| --- | --- |
| O=C(C[C@@H]1C[C@@H]2CC(c3ccnc4ccc(F)cc34)=C[C@@H]2C1)Nc1ccc(Cl)nc1 (racemic) [Compound 62] | ≤ 5 |
| CC(C(=O)Nc1nncs1)[C@H]1C[C@H]2C[C@@H](c3ccnc4ccc(F)cc34)C[C@H]2C1 (some centres unmarked) [Compound 31] | > 100 |
| CC#Cc1ccc(NC(=O)C(C)[C@H]2C[C@H]3C[C@@H](c4ccnc5ccc(F)cc45)C[C@H]3C2)nc1 (some centres unmarked) [Compound 82] | > 100 |
| O=C(C[C@H]1C[C@H]2CC(c3ccnc4ccc(F)cc34)C[C@H]2C1)Nc1ccc2c(c1)OC(F)(F)O2 (some centres unmarked) [Compound 16] | > 100 |
| CC(C(=O)Nc1cncc(Cl)c1)[C@H]1C[C@H]2C[C@@H](c3ccnc4ccc(F)cc34)C[C@H]2C1 (some centres unmarked) [Compound 35] | 5 to 25 |
| O=C(C[C@@H]1C[C@@H]2CC(c3ccnc4ccc(F)cc34)=C[C@@H]2C1)Nc1ccc(Cl)cn1 [Compound 61] | 5 to 25 |
| CC(C(=O)Nc1ccc(Cl)cc1)[C@H]1C[C@]2(C)C[C@H](c3ccnc4ccc(F)cc34)C[C@]2(C)C1 (some centres unmarked) [Compound 41] | 5 to 25 |
| N#Cc1ccc(NC(=O)C[C@H]2C[C@@H]3C[C@H](c4ccnc5ccc(F)cc45)C[C@@H]3C2)cn1 [Compound 71] | 5 to 25 |
| Cn1nc(C2=C[C@@H]3C[C@H](CC(=O)Nc4ccc(Cl)cc4)C[C@@H]3C2)c2ccccc21 [Compound 55] | > 100 |
| O=C(C[C@@H]1C[C@@H]2C[C@@]3(c4ccnc5ccc(F)cc45)O[C@H]3[C@@H]2C1)Nc1ccc(Cl)cc1 [Compound 49] | 5 to 25 |
| C#Cc1ccc(NC(=O)[C@H](C)[C@@H]2C[C@H]3CC(c4ccnc5ccc(F)cc45)C[C@H]3C2)nc1 (some centres unmarked) [Compound 75] | 5 to 25 |
| CC(C(=O)Nc1ccc(Cl)cn1)N1C[C@H]2C[C@@H](c3ccnc4ccc(F)cc34)C[C@H]2C1 (some centres unmarked) [Compound 99] | 5 to 25 |
| N#Cc1ccc(NC(=O)C2([C@H]3C[C@H]4C[C@@H](c5ccnc6ccc(F)cc56)C[C@H]4C3)CC2)nc1 [Compound 98] | ≤ 5 |
| O=C(Nc1ccc(Cl)cn1)C1C[C@@H]2C[C@H](c3ccnc4ccc(F)cc34)C[C@@H]2C1 (single isomer, unassigned) [Compound 108] | 5 to 25 |
| CC(C)(C(=O)Nc1ccc(Cl)cn1)N1C[C@H]2C[C@@H](c3ccnc4ccc(F)cc34)C[C@H]2C1 [Compound 100] | > 100 |
| O=C(Nc1ccc(Cl)cc1)C(=O)N1C[C@H]2C[C@@H](c3ccnc4ccc(F)cc34)C[C@H]2C1 [Compound 47] | 25 to 100 |
| CC(C)(C(=O)Nc1ccc(C#N)nc1)[C@H]1C[C@H]2C[C@@H](c3ccnc4ccc(F)cc34)C[C@H]2C1 [Compound 89] | ≤ 5 |

Second part, the molecule after the results:

| IC50 [nM] | Compound |
| --- | --- |
| > 100 | O=C(Nc1ccc(Cl)cn1)C1C[C@@H]2C[C@H](c3ccnc4ccc(F)cc34)C[C@@H]2C1 (single isomer, unassigned) [Compound 107] |
| > 100 | CC(C(=O)Nc1ccc(O)nc1)[C@H]1C[C@H]2C[C@@H](c3ccnc4ccc(F)cc34)C[C@H]2C1 (some centres unmarked) [Compound 28] |
| > 100 | Cn1ncc2cc(NC(=O)C[C@H]3C[C@H]4CC(c5ccnc6ccc(F)cc56)C[C@H]4C3)ccc21 (some centres unmarked) [Compound 15] |
| ≤ 5 | CC(C(=O)Nc1ccc(C#N)cc1)[C@H]1C[C@H]2C[C@@H](c3ccnc4ccc(F)cc34)C[C@H]2C1 (some centres unmarked) [Compound 36] |
| > 100 | O=C(C[C@H]1C[C@@H]2CC(c3ccncc3F)=C[C@@H]2C1)Nc1ccc(Cl)cc1 [Compound 54] |
| ≤ 5 | CC(C(=O)Nc1ccc(C(F)(F)F)nc1)[C@H]1C[C@H]2C[C@@H](c3ccnc4ccc(F)cc34)C[C@H]2C1 (some centres unmarked) [Compound 80] |
| 5 to 25 | CC(C(=O)Nc1ccc(C(F)(F)F)cn1)[C@H]1C[C@H]2C[C@@H](c3ccnc4ccc(F)cc34)C[C@H]2C1 (some centres unmarked) [Compound 81] |
| 25 to 100 | CC(C(=O)Nc1ccc(Cl)nn1)[C@H]1C[C@H]2C[C@@H](c3ccnc4ccc(F)cc34)C[C@H]2C1 (some centres unmarked) [Compound 29] |
| ≤ 5 | C#Cc1ccc(NC(=O)C[C@@H]2C[C@@H]3C[C@H](c4ccnc5ccc(F)cc45)C[C@@H]3C2)cn1 [Compound 66] |
| 5 to 25 | COC(=O)c1ccc(NC(=O)C(C)[C@H]2C[C@H]3C[C@@H](c4ccnc5ccc(F)cc45)C[C@H]3C2)cc1 (some centres unmarked) [Compound 8] |
| > 100 | CC(C)(O)C#Cc1ccc(NC(=O)C[C@@H]2C[C@H]3CC(c4ccnc5ccc(F)cc45)C[C@H]3C2)nc1 (some centres unmarked) [Compound 103] |
| ≤ 5 | N#Cc1ccc(NC(=O)C[C@@H]2C[C@@H]3CC(c4ccnc5ccc(F)cc45)=C[C@@H]3C2)nc1 (racemic) [Compound 69] |
| > 100 | O=C(Nc1ccc(Cl)cc1)O[C@@H]1C[C@@H]2C[C@H](c3ccnc4ccc(F)cc34)C[C@@H]2C1 [Compound 106] |
| 5 to 25 | N#Cc1ccc(NC(=O)C[C@@H]2C[C@@H]3CC(c4ccnc5ccc(F)cc45)=C[C@@H]3C2)cn1 (relative stereo) [Compound 101] |
| 25 to 100 | O=C(CN1C[C@H]2C[C@@H](c3ccnc4ccc(F)cc34)C[C@H]2C1)Nc1ccc(Cl)cc1 [Compound 46] |
| > 100 | O=C(Nc1ccc(Cl)cn1)/C(F)=C1/C[C@@H]2C[C@H](c3ccnc4ccc(F)cc34)C[C@@H]2C1 [Compound 105] |
| ≤ 5 | C#Cc1ccc(NC(=O)C[C@@H]2C[C@H]3CC(c4ccnc5ccc(F)cc45)C[C@H]3C2)cc1 (some centres unmarked) [Compound 20] |
| 5 to 25 | O=C(C[C@H]1C[C@H]2CC(c3ccnc4ccc(F)cc34)C[C@H]2C1)Nc1ccc(Cl)cn1 (some centres unmarked) [Compound 17] |
| > 100 | CC(C(=O)Nc1ccc(-c2cnn(C3CC3)c2)nc1)[C@H]1C[C@H]2C[C@@H](c3ccnc4ccc(F)cc34)C[C@H]2C1 (some centres unmarked) [Compound 32] |
| > 100 | O=C(C[C@@H]1C[C@@H]2C[C@H](c3ccnc4ccc(F)cc34)C[C@@H]2C1)Nc1ccc2c(c1)OCC1COCCN21 (some centres unmarked) [Compound 13] |
| > 100 | CC(C(=O)Nc1cnc(N)nc1)[C@H]1C[C@H]2C[C@@H](c3ccnc4ccc(F)cc34)C[C@H]2C1 (some centres unmarked) [Compound 30] |
| 5 to 25 | O=C(C[C@@H]1C[C@H]2CC(c3ccnc4ccc(F)cc34)C[C@H]2C1)Nc1ccc(Cl)cn1 (some centres unmarked) [Compound 21] |
